According to US7910573B2, “Crystalline forms of 11β-(4-acetylphenyl)-20,20,21,21,21-pentafluoro-17-hydroxy-19-nor-17α-pregna-4,9-dien-3-one” (Bayer Schering Pharma AG, priority 2006, dated 2011):

Experiments:
Type in all cases: physicochemical
[1] = Short-term stability on storage at elevated temperature and elevated humidity
[2] = as above; settings: 70° C.
Text: This is shown on comparison of the results of the temperature tests, moisture tests and in particular in light exposure tests.
(§1) On use of 11β-(4-acetylphenyl)-20,20,21,21,21-pentafluoro-17-hydroxy-19-nor-17α-pregna-4,9-dien-3-one as active ingredient in pharmaceutical preparations, the profile of impurities is of crucial importance. A compound which occurs on storage of this active ingredient is 11β-(4-acetylphenyl)-20,20,21,21,21-pentafluoro-17-hydroxy-9,10-epoxy-19-nor-10α,17α-pregna-1,4-dien-3-one. The toxicity of this compound is known. The content of this impurity must be below 0.2% until the shelf life of the pharmaceutical formulation expires. […] The amorphous solid is therefore unsuitable without stabilization for use in a medicinal product. With polymorph I, however, the increase in this critical impurity is virtually zero. Elaborate stabilization on use of polymorph I is therefore no longer necessary. The formation of the abovementioned epoxy impurity on storage of amorphous 11β-(4-acetylphenyl)-20,20,21,21,21-pentafluoro-17-hydroxy-19-nor-17α-pregna-4,9-dien-3-one at a temperature of 70° C. is 0.6% after only 15 days and as much as 1.1% after 30 days. On the other hand, on storage of polymorph I at the same temperature for 30 days, just 0.1% of the epoxy impurity is detectable.

[3] = Stability on storage under light (20 kLux); settings: for decrease in the active ingredient content: initial values 98.4% and 95.4%
Text: The greater stability of polymorph I is even clearer on storage under light. […] The initial values were 98.4% and 95.4% here too.
as §1

[4] = Solid form conversion of the amorphous active ingredient under stress conditions; settings: 15 d, 90° C./75% relative humidity
Text: It can be assumed that such a recrystallization also occurs on storage of the amorphous phase over a lengthy period at relatively low temperatures. Such a conversion is, however, undesired in the finished medicinal form because it may lead to an altered, non-reproducible release of the active ingredient, but may also influence the hardness of the medicinal form.

[5] = Solubility in a water/ethanol mixture; settings: proportion of water 20 wt %
Text: This dependency is depicted in FIG. 7. […] The required proportion of water is distinctly higher for other systems, so that the displacement can be carried out only at high dilution and thus with an inadequate space yield.

[6] = 50° C., 75% rel. humidity, 15 days
[7] = 50° C., 75% rel. humidity, 30 days
[8] = 50° C., no rel. humidity given, 15 days, initial content 98.4% or 95.4%
[9] = 50° C., no rel. humidity given, 30 days, initial content 98.4% or 95.4%
[10] = 70° C., 75% rel. humidity, 15 days
[11] = 70° C., 75% rel. humidity, 30 days
[12] = 70° C., no rel. humidity given, 15 days
[13] = 70° C., no rel. humidity given, 30 days
[14] = 90° C., 75% rel. humidity, 15 days
[15] = 90° C., no rel. humidity given, 15 days

Row | SMILES | decrease in the active ingredient content [1, 6] [%] | decrease in the active ingredient content [1, 7] [%] | decrease in the active ingredient content [1, 8] [%] | decrease in the active ingredient content [1, 9] [%] | decrease in the active ingredient content [1, 10] [%] | decrease in the active ingredient content [1, 11] [%] | decrease in the active ingredient content [1, 12] [%] | decrease in the active ingredient content [1, 13] [%] | decrease in the active ingredient content [1, 14] [%] | decrease in the active ingredient content [1, 15] [%] | formation of the epoxy impurity on storage ([2]; 30 days) [%] | increase in the epoxy impurity ([3]; 20 kLux, 42 h) [%] | increase in the epoxy impurity ([3]; 20 kLux, 66 h) [%] | decrease in the active ingredient content ([3]; storage under 20 kLux for 42 h) [%] | decrease in the active ingredient content ([3]; storage under 20 kLux for 66 h) [%] | increase in the epoxy impurity ([3]; storage under stress conditions and under light) | formation of the epoxy impurity on storage ([2]; 15 days) [%] | change of solid form on storage [4] | solubility relative to the solubility in pure ethanol [5]
1 | CC(=O)c1ccc([C@H]2C[C@@]3(C)[C@@H](CC[C@@]3(O)C(F)(F)C(F)(F)F)[C@@H]3CCC4=CC(=O)CCC4=C32)cc1 [polymorph I, 11β-(4-acetylphenyl)-20,20,21,21,21-pentafluoro-17-hydroxy-19-nor-17α-pregna-4,9-dien-3-one] | 0 | −0.1 | 0 | −0.3 | −0.1 | −0.2 | −1.5 | −3.5 | −0.2 | −3.6 | 0.1 | 0.1 | 0.1 | −0.2 | −0.4 | below 0.2% |  |  | 
2 | CC(=O)c1ccc([C@H]2C[C@@]3(C)[C@@H](CC[C@@]3(O)C(F)(F)C(F)(F)F)[C@@H]3CCC4=CC(=O)CCC4=C32)cc1 [amorphous, 11β-(4-acetylphenyl)-20,20,21,21,21-pentafluoro-17-hydroxy-19-nor-17α-pregna-4,9-dien-3-one] | −2.8 | −3.3 | −2.9 | −5.1 | −13.5 | −17.4 | −10.2 | −17.3 | −31.7 | −32.6 | 1.1 | 8.4 | 11.2 | −34 | −42 |  | 0.6 | Partial recrystallization to give polymorph I | 
3 | CC(=O)c1ccc([C@H]2C[C@@]3(C)[C@@H](CC[C@@]3(O)C(F)(F)C(F)(F)F)[C@@H]3CCC4=CC(=O)CCC4=C32)cc1 [11β-(4-Acetylphenyl)-20,20,21,21,21-pentafluoro-17-hydroxy-19-nor-17α-pregna-4,9-dien-3-one] |  |  |  |  |  |  |  |  |  |  |  |  |  |  |  |  |  |  | one-hundredth
